In patent EP0565377B1, “Therapeutic agents for use in the treatment of Parkinson's Disease” (Kyowa Hakko Kogyo Co., Ltd., priority 1992, dated 1993):

test system: dd-strain male mice; assay: Acute toxicity test (minimum lethal dose, oral); assay type: in vivo; conditions: oral administration, mortality seven days after administration, three mice per group
Experimental: Test compounds were orally administered to groups of dd-strain male mice weighing 20±1 g, each group consisting of three mice. Seven days after the administration, minimum lethal dose (MLD) of each compound was determined by observing the mortality.

Structure (SMILES)	MLD
CCCn1c(=O)c2c(nc(/C=C/c3cc(OC)c(OCc4ccccc4)c(OC)c3)n2C)n(CCC)c1=O [Compound 27, (E)-8-(4-benzyloxy-3,5-dimethoxystyryl)-7-methyl-1,3-dipropylxanthine]	> 100 mg/kg
CCCn1c(=O)c2c(nc(/C=C/c3ccc(OC)c4ccccc34)n2C)n(CCC)c1=O [Compound 62, (E)-8-[2-(4-methoxynaphthyl)vinyl]-7-methyl-1,3-dipropylxanthine]	> 100 mg/kg
CCCn1c(=O)c2c(nc(/C=C/c3cccc(Cl)c3)n2C)n(CCC)c1=O [Compound 39, (E)-8-(3-chlorostyryl)-7-methyl-1,3-dipropylxanthine]	> 100 mg/kg
CCCn1c(=O)c2c(nc(/C=C/c3ccc(OCC)c(OCC)c3)n2C)n(CCC)c1=O [Compound 54, (E)-8-(3,4-diethoxystyryl)-7-methyl-1,3-dipropylxanthine]	> 100 mg/kg
CCCn1c(=O)c2c(nc(/C=C/c3cc(OC)c(OC)cc3Br)n2C)n(CCC)c1=O [Compound 58, (E)-8-(2-bromo-4,5-dimethoxystyryl)-7-methyl-1,3-dipropylxanthine]	> 300 mg/kg
CCCn1c(=O)c2nc(/C=C/c3cccc(Cl)c3)[nH]c2n(CCC)c1=O [Compound 38, (E)-8-(3-chlorostyryl)-1,3-dipropylxanthine]	> 100 mg/kg
CCCn1c(=O)c2c(nc(/C=C/c3cc(Br)c(OC)c(OC)c3)n2C)n(CCC)c1=O [Compound 60, (E)-8-(3-bromo-4,5-dimethoxystyryl)-7-methyl-1,3-dipropylxanthine]	> 100 mg/kg
CCCn1c(=O)c2[nH]c(/C=C/c3cccc(OC)c3OC)nc2n(CCC)c1=O [Compound 28, (E)-8-(2,3-dimethoxystyryl)-1,3-dipropylxanthine]	> 100 mg/kg
CCCn1c(=O)c2c(nc(/C=C/c3cccc([N+](=O)[O-])c3)n2C)n(CCC)c1=O [Compound 35, (E)-7-methyl-8-(3-nitrostyryl)-1,3-dipropylxanthine]	> 100 mg/kg
CCCn1c(=O)c2[nH]c(/C=C/c3cc(OC)c(OCc4ccccc4)c(OC)c3)nc2n(CCC)c1=O [Compound 26, (E)-8-(4-benzyloxy-3,5-dimethoxystyryl)-1,3-dipropylxanthine]	> 100 mg/kg
CCCn1c(=O)c2[nH]c(/C=C/c3cc(OC)c(OC)cc3Br)nc2n(CCC)c1=O [Compound 57, (E)-8-(2-bromo-4,5-dimethoxystyryl)-1,3-dipropylxanthine]	> 300 mg/kg
CCCn1c(=O)c2[nH]c(/C=C/c3cccc([N+](=O)[O-])c3)nc2n(CCC)c1=O [Compound 34, (E)-8-(3-nitrostyryl)-1,3-dipropylxanthine]	> 100 mg/kg
CCCn1c(=O)c2c(nc(/C=C/c3cccc(F)c3)n2C)n(CCC)c1=O [Compound 37, (E)-8-(3-fluorostyryl)-7-methyl-1,3-dipropylxanthine]	> 100 mg/kg
CCCn1c(=O)c2[nH]c(/C=C/c3ccc(OC)c(C)c3C)nc2n(CCC)c1=O [Compound 12, (E)-8-(4-methoxy-2,3-dimethylstyryl)-1,3-dipropylxanthine]	> 300 mg/kg
CCCn1c(=O)c2[nH]c(/C=C/c3ccc(C)c(C)c3)nc2n(CCC)c1=O [Compound 30, (E)-8-(3,4-dimethylstyryl)-1,3-dipropylxanthine]	> 100 mg/kg
CCCn1c(=O)c2nc(/C=C/c3cc(OC)c(OC)cc3OC)[nH]c2n(CCC)c1=O [Compound 22, (E)-1,3-dipropyl-8-(2,4,5-trimethoxystyryl)-xanthine]	> 300 mg/kg
CCCn1c(=O)c2c(nc(/C=C/c3ccccc3Cl)n2C)n(CCC)c1=O [Compound 41, (E)-8-(2-chlorostyryl)-7-methyl-1,3-dipropylxanthine]	> 100 mg/kg

Structure (SMILES)	MLD
CCCn1c(=O)c2c(nc(/C=C/c3cccc(OC)c3OC)n2C)n(CCC)c1=O [Compound 29, (E)-8-(2,3-dimethoxystyryl)-7-methyl-1,3-dipropylxanthine]	> 300 mg/kg
CCCn1c(=O)c2c(nc(/C=C/c3ccc4c(c3)OCCO4)n2C)n(CCC)c1=O [Compound 17, (E)-8-[2-(1,4-benzodioxan-6-yl)vinyl]-7-methyl-1,3-dipropylxanthine]	> 300 mg/kg
CCCn1c(=O)c2[nH]c(/C=C/c3cc(C)c(OC)cc3C)nc2n(CCC)c1=O [Compound 44, (E)-8-(4-methoxy-2,5-dimethylstyryl)-1,3-dipropylxanthine]	> 300 mg/kg
CCCn1c(=O)c2c(nc(/C=C/c3ccc(OC)c(O)c3)n2C)n(CCC)c1=O [Compound 63, (E)-8-(3-hydroxy-4-methoxystyryl)-7-methyl-1,3-dipropylxanthine]	> 100 mg/kg
CCCn1c(=O)c2c(nc(/C=C\c3ccc(OC)c(OC)c3)n2C)n(CCC)c1=O [Compound 46, (Z)-8-(3,4-dimethoxystyryl)-7-methyl-1,3-dipropylxanthine]	> 300 mg/kg
CCCn1c(=O)c2[nH]c(/C=C/c3ccccc3Cl)nc2n(CCC)c1=O [Compound 40, (E)-8-(2-chlorostyryl)-1,3-dipropylxanthine]	> 100 mg/kg
CCCn1c(=O)c2[nH]c(/C=C/c3ccc(OC)c4ccccc34)nc2n(CCC)c1=O [Compound 61, (E)-8-[2-(4-methoxynaphthyl)vinyl]-1,3-dipropylxanthine]	> 100 mg/kg
CCCOc1ccc(/C=C/c2nc3c([nH]2)c(=O)n(CCC)c(=O)n3CCC)cc1 [Compound 49, (E)-8-(4-propoxystyryl)-1,3-dipropylxanthine]	> 100 mg/kg
CCCn1c(=O)c2[nH]c(/C=C/c3ccccc3F)nc2n(CCC)c1=O [Compound 42, (E)-8-(2-fluorostyryl)-1,3-dipropylxanthine]	> 100 mg/kg
CCCn1c(=O)c2nc(/C=C/c3cccc(F)c3)[nH]c2n(CCC)c1=O [Compound 36, (E)-8-(3-fluorostyryl)-1,3-dipropylxanthine]	> 100 mg/kg
CCCn1c(=O)c2c(nc(/C=C/c3ccc(OC)c(OC)c3OC)n2C)n(CCC)c1=O [Compound 21, (E)-7-methyl-1,3-dipropyl-8-(2,3,4-trimethoxystyryl)xanthine]	> 300 mg/kg
CCCn1c(=O)c2[nH]c(/C=C/c3ccc(OC)c(Br)c3)nc2n(CCC)c1=O [Compound 55, (E)-8-(3-bromo-4-methoxystyryl)-1,3-dipropylxanthine]	> 100 mg/kg
CCCn1c(=O)c2nc(/C=C/c3cc(OC)cc(OC)c3)[nH]c2n(CCC)c1=O [Compound 32, (E)-8-(3,5-dimethoxystyryl)-1,3-dipropylxanthine]	> 100 mg/kg
CCCn1c(=O)c2c(nc(/C=C/c3ccccc3F)n2C)n(CCC)c1=O [Compound 43, (E)-8-(2-fluorostyryl)-7-methyl-1,3-dipropylxanthine]	> 100 mg/kg
CCCn1c(=O)c2[nH]c(/C=C/c3ccc(OC)c(C)c3OC)nc2n(CCC)c1=O [Compound 14, (E)-8-(2,4-dimethoxy-3-methylstyryl)-1,3-dipropylxanthine]	> 100 mg/kg
CCCCOc1ccc(/C=C/c2nc3c(c(=O)n(CCC)c(=O)n3CCC)n2C)cc1 [Compound 52, (E)-8-(4-butoxystyryl)-7-methyl-1,3-dipropylxanthine]	> 100 mg/kg
CCCn1c(=O)c2c(nc(/C=C/c3cc(OC)cc(OC)c3)n2C)n(CCC)c1=O [Compound 33, (E)-8-(3,5-dimethoxystyryl)-7-methyl-1,3-dipropylxanthine]	> 100 mg/kg
